The source of these data is patent US12030878B2 (BRISTOL-MYERS SQUIBB COMPANY, priority 2017, dated 2024).

Common to all, as to type: cell-based
The target of test [1] is T1, human TLR9 (Homo sapiens, UniProt Q9NR96).
T1 construct: host or cells: HEK-Blue cells
T1 sequence (Q9NR96 26-1032): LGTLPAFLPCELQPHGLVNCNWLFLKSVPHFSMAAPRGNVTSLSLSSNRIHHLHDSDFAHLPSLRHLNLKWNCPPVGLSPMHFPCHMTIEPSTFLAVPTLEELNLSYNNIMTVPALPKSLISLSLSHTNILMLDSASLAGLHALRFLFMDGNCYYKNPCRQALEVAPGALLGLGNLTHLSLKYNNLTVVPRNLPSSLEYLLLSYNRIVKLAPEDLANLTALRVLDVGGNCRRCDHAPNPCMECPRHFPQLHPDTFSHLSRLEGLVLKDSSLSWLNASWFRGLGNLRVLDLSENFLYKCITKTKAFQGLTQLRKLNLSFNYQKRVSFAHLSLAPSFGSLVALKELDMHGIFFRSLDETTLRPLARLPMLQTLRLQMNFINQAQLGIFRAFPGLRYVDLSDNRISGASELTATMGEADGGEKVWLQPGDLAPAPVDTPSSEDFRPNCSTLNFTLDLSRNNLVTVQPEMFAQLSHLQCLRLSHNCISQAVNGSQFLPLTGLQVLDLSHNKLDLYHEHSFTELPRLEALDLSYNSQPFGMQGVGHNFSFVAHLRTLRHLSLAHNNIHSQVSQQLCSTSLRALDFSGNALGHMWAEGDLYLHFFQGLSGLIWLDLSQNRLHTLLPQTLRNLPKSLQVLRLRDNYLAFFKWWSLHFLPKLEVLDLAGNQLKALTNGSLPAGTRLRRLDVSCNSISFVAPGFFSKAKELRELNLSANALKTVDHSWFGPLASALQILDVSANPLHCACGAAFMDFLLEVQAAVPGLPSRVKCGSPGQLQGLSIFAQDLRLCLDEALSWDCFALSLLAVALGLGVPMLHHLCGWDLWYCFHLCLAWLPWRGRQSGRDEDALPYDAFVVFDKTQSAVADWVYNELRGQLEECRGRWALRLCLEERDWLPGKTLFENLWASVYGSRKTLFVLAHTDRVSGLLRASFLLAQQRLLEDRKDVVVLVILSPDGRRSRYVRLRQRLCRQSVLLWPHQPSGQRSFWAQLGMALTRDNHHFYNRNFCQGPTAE
Put plainly: TLR9 inhibition reporter assay (HEK-Blue SEAP). To be noted: HEK-Blue cells overexpressing human TLR9, stimulated with ODN2006 5 nM, 22 hour incubation. The method in brief: (§1)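 Stimulation followed a 30 min room-temperature compound exposure (final 0.05 nM-50 μM): TLR7 cells with 7.5 μM gardiquimod, TLR8 with 15.9 μM R848, TLR9 with 5 nM ODN2006. After 22 h at 37 °C, secreted alkaline phosphatase was detected colorimetrically and inhibition calculated against DMSO and known-inhibitor controls.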

Test [2] has as its target T2, human TLR7 (Homo sapiens, UniProt Q9NYK1).
T2 construct: host or cells: HEK-Blue cells
T2 sequence (Q9NYK1 27-1049): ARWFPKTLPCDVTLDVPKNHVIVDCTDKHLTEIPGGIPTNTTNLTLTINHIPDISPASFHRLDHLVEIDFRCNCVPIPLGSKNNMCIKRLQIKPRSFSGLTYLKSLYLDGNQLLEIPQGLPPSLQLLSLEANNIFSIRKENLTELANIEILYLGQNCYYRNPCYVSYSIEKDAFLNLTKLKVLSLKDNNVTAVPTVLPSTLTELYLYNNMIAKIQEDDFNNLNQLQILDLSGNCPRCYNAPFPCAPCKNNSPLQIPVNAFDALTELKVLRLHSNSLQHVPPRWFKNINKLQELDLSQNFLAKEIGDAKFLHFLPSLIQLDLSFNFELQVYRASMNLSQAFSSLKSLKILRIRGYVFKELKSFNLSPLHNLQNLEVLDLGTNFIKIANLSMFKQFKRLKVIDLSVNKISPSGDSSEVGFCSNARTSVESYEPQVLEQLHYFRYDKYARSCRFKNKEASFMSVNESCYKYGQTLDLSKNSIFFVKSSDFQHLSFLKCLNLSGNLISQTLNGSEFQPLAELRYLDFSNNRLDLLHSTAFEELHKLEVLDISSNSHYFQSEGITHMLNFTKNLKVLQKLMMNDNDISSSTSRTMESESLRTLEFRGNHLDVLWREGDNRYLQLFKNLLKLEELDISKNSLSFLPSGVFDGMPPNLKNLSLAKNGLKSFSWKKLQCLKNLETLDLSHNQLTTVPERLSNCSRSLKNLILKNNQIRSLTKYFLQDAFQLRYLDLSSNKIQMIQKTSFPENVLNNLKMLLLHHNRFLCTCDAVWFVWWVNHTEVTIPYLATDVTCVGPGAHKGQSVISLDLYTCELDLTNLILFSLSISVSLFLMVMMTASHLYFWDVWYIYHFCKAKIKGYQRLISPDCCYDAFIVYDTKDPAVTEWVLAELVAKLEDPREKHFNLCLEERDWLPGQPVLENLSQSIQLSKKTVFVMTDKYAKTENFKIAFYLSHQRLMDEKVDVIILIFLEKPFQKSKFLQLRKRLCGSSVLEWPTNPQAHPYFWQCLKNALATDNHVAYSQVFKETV
Put plainly: TLR7 inhibition reporter assay (HEK-Blue SEAP). To be noted: HEK-Blue cells overexpressing human TLR7, stimulated with gardiquimod 7.5 μM, 22 hour incubation. The method in brief: as §1
On the technique in general: Reporter assays use an easily measured gene product as a stand-in for the process of interest.

Test [3] concerns the target T3, human TLR8 (Homo sapiens, UniProt Q9NR97).
T3 construct: host or cells: HEK-Blue cells
T3 sequence (Q9NR97 27-1041): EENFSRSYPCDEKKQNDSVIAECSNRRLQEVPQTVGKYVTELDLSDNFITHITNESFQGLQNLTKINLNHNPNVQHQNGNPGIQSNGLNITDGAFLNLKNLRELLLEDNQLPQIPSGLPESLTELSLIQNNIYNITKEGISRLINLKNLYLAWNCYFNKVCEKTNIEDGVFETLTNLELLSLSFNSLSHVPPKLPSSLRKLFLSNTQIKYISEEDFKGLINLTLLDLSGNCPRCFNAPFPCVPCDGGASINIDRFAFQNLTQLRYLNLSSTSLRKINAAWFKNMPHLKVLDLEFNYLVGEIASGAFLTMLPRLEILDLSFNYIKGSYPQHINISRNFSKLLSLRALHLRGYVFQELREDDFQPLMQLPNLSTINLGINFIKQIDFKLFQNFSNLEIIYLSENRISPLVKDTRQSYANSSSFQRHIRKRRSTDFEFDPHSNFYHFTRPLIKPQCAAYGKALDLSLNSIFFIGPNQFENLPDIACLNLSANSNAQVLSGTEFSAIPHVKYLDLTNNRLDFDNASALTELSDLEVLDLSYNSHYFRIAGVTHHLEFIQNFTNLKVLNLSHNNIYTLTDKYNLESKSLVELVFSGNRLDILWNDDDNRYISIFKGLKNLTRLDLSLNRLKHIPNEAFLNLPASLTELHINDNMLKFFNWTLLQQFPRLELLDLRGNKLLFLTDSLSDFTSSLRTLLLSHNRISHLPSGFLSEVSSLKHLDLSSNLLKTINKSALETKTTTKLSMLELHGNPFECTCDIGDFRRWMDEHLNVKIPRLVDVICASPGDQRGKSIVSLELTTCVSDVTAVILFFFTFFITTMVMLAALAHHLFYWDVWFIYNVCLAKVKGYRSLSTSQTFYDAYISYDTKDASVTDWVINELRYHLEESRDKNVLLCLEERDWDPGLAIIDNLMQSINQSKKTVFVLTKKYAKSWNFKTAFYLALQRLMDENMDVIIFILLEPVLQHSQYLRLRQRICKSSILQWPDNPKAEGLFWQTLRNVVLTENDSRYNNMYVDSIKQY
Put plainly: TLR8 inhibition reporter assay (HEK-Blue SEAP). To be noted: HEK-Blue cells overexpressing human TLR8, stimulated with R848 15.9 μM, 22 hour incubation. The method in brief:
as §1

Regarding `Cc1cc(-c2[nH]c3ccc(OCc4ccc(N5CCOCC5)cc4)cc3c2C(C)C)ccn1` [Example 168, 4-(4-(((3-isopropyl-2-(2-methylpyridin-4-yl)-1H-indol-5-yl)oxy)methyl)phenyl)morpholine], the values for the IC50 in test [1], in test [2] and in test [3] were over 50000 nM, 4930 nM and 134 nM, respectively.
With `Cc1cc(-c2[nH]c3ccc(OCc4cccnc4)cc3c2C(C)C)ccn1` [Example 169, 3-isopropyl-2-(2-methylpyridin-4-yl)-5-(pyridin-3-ylmethoxy)-1H-indole], the IC50 in test [1] worked out at 28400 nM; in test [2], 200 nM; in test [3], 181 nM.
Turning to `COc1ccc(-c2[nH]c3ccc(O[C@H]4CCNC4)cc3c2C(C)C)cc1OC` [Example 170, (S)-2-(3,4-dimethoxyphenyl)-3-isopropyl-5-(pyrrolidin-3-yloxy)-1H-indole], the IC50 in test [1] was found to be 1080 nM; in test [2] it was 83.9 nM; in test [3] it was 31.3 nM.
In the same order, the values of `COc1ccc(-c2[nH]c3ccc(OC4CCNCC4)cc3c2C(C)C)cc1OC` [Example 171, 2-(3,4-dimethoxyphenyl)-3-isopropyl-5-(piperidin-4-yloxy)-1H-indole] are 939 nM, 166 nM and 15.3 nM.
Take `CNCCOc1ccc2[nH]c(-c3ccnc(C)c3)c(C(C)C)c2c1` [Example 172, 2-((3-isopropyl-2-(2-methylpyridin-4-yl)-1H-indol-5-yl)oxy)-N-methylethan-1-amine]: the figures for the IC50 in test [1], in test [2] and in test [3] were 3120 nM, 119 nM and 12.7 nM, respectively.
In the same order, the values of `COc1ccc(-c2[nH]c3ccc(OCCN4CCOCC4)cc3c2C(C)C)cc1OC` [Example 173, 4-(2-((2-(3,4-dimethoxyphenyl)-3-isopropyl-1H-indol-5-yl)oxy)ethyl)morpholine] are 5050 nM, 682 nM and 63.3 nM.
The corresponding values for `Cc1cc(-c2[nH]c3ccc(OCc4ccncc4)cc3c2C(C)C)ccn1` [Example 174, 3-isopropyl-2-(2-methylpyridin-4-yl)-5-(pyridin-4-ylmethoxy)-1H-indole] are over 50000 nM, 3590 nM and 3020 nM.
Regarding `Cc1cc(-c2[nH]c3ccc(OCCN4CCOCC4)cc3c2C(C)C)ccn1` [Example 175, 4-(2-((3-isopropyl-2-(2-methylpyridin-4-yl)-1H-indol-5-yl)oxy)ethyl)morpholine], the concentration for half-maximal inhibition (IC50) in test [1] worked out at 9940 nM; in test [2], 439 nM; in test [3], 17.5 nM.
For `Cc1cc(-c2[nH]c3ccc(OC4CCCNC4)cc3c2C(C)C)ccn1` (stereo not drawn) [Example 177, 3-isopropyl-2-(2-methylpyridin-4-yl)-5-(piperidin-3-yloxy)-1H-indole], the concentration for half-maximal inhibition (IC50) came to 1290 nM in test [1], 27.8 nM in test [2] and 33.4 nM in test [3].
`Cc1cc(-c2[nH]c3ccc(OC4CCN(C)CC4)cc3c2C(C)C)ccn1` [Example 179, 3-isopropyl-5-((1-methylpiperidin-4-yl)oxy)-2-(2-methylpyridin-4-yl)-1H-indole]: the IC50 stood at 1440 nM in test [1], 39.7 nM in test [2] and 2.5 nM in test [3].
Turning to `Cc1cc(-c2[nH]c3ccc(OCC4CCCNC4)cc3c2C(C)C)ccn1` (stereo not drawn) [Example 180, 3-isopropyl-2-(2-methylpyridin-4-yl)-5-(piperidin-3-ylmethoxy)-1H-indole], the IC50 worked out at 1830 nM in test [1], 37.7 nM in test [2] and 3.5 nM in test [3].
The corresponding values for `Cc1cc(-c2[nH]c3ccc(OCC4CCCN(C)C4)cc3c2C(C)C)ccn1` (stereo not drawn) [Example 181, 3-isopropyl-5-((1-methylpiperidin-3-yl)methoxy)-2-(2-methylpyridin-4-yl)-1H-indole] are 915 nM, 24.2 nM and 5.9 nM.
In the case of `CCc1c(-c2ccnc(C)c2)[nH]c2ccc(O[C@H]3CCNC3)cc12` [Example 182, (S)-3-ethyl-2-(2-methylpyridin-4-yl)-5-(pyrrolidin-3-yloxy)-1H-indole], the values for the IC50 in test [1], in test [2] and in test [3] were 566 nM, 400 nM and 19.2 nM, respectively.
With `CCc1c(-c2ccnc(C)c2)[nH]c2ccc(OCC3CCN(C)CC3)cc12` [Example 183, 3-ethyl-5-((1-methylpiperidin-4-yl)methoxy)-2-(2-methylpyridin-4-yl)-1H-indole], the IC50 in test [1] came to 512 nM; in test [2], 131 nM; in test [3] it was 12 nM.
The corresponding values for `Cc1cc(-c2[nH]c3ccc(OC4CCC(OC5CCNCC5)CC4)cc3c2C(C)C)ccn1` (stereo not drawn) [Example 184, 3-isopropyl-2-(2-methylpyridin-4-yl)-5-((4-(piperidin-4-yloxy)cyclohexyl)oxy)-1H-indole] are 5300 nM, 51.9 nM and 54.6 nM.

One may read the IC50 as the concentration that inhibits the measured activity by half. The low end stands for inhibition by little substance, the high end for a need for much substance.
